Patent publication US20090181980A1, “Synergistic Pharmaceutical Composition” (priority 2006, published 2009)

Tested on: M. tuberculosis
Experiment: MIC alone and in combination (synergy test)
Type: cell-based, Mycobacterium tuberculosis
Conditions: for change of MIC when tested together: combination of Ethambutol and Isoniazid (negative control, FIG. 2)
Description: A sulfonylurea ALS inhibitor and a triazolopyrimidine ALS inhibitor were tested alone and in combination with Rifampicin. The positive controls used were Isoniazid and Streptomycin where one finds a synergistic action. The individual MICs of Isoniazid (INH) and Streptomycin (Strep) are 0.03 and 1.0 μg/ml respectively. When used in combination, these values drop to 0.0075 and 0.12 μg/ml respectively (cf. FIG. 1). This is 4 fold and 8 fold less.
The negative control used was a combination of Ethambutol (Etham) and Isoniazid (Inh) where there is no synergistic activity. […] In. Clinical Microbiology Procedures Handbook; Vol. 1-2 by Isenberg, Henry. D. Ed Washington D.C.; American Society for Microbiology/1992; Pages 5.18.1 to 5.18.28).
When used in combination, these MICs drop 0.0038 and 0.03 ug/ml respectively, which is 8-fold less for both the drugs.
When used in combination, these MICs drop to 0.0038 & 0.03 ug/ml which is 4 & 8-fold less for both the drugs.

[1] = combination of Isoniazid and Streptomycin versus individual MIC

| Compound | fold less MIC in combination (combination of Rifampicin and SU versus individual MIC) [fold] | fold less MIC in combination (combination of Rifampicin and TP versus individual MIC) [fold] | change of MIC when tested together | fold less MIC in combination [1] [fold] |
| --- | --- | --- | --- | --- |
| CO[C@H]1/C=C/O[C@@]2(C)Oc3c(C)c(O)c4c(O)c(c(/C=N/N5CCN(C)CC5)c(O)c4c3C2=O)NC(=O)/C(C)=C\C=C\[C@H](C)[C@H](O)[C@@H](C)[C@@H](O)[C@@H](C)[C@H](OC(C)=O)[C@@H]1C [Rifampicin] | 8 | 4 | – | – |
| CC[C@@H](CO)NCCN[C@@H](CC)CO [Ethambutol] | – | – | do not drop significantly | – |
| NNC(=O)c1ccncc1 [Isoniazid] | – | – | do not drop significantly | 4 |
| [H]/N=C(/N)N[C@H]1[C@H](O)[C@@H](O)[C@H](O[C@@H]2O[C@@H](C)[C@](O)(C=O)[C@H]2O[C@@H]2O[C@@H](CO)[C@H](O)[C@@H](O)[C@@H]2NC)[C@@H](N/C(N)=N\[H])[C@@H]1O [Streptomycin] | – | – | – | 8 |
